Data taken from the CheMixHub drug solubility set.

Test: xn = mol fraction of the nth substance listed, in the solute-free solvent

CCCCOc1ccc(C(=O)CCN2CCCCC2)cc1.Cl + CCO + O
solubility (g/100 g solution)
Conditions	278.15 K	283.15 K	288.15 K	293.15 K	298.15 K	303.15 K	308.15 K	313.15 K	318.15 K	323.15 K
x2 = 0.1	34.6	37.9	41.1	44.6	48.1	51.6	55.2	58.8	62.2	65.7
x2 = 0.2	33.9	37.1	40.3	43.8	47.1	50.6	54.1	57.7	61.1	64.5
x2 = 0.3	33.4	36.5	39.6	43	46.3	49.8	53.2	56.7	60.1	63.5
x2 = 0.4	33.1	36.1	39.2	42.4	45.7	49	52.4	55.9	59.4	62.7
x2 = 0.5	32.7	35.7	38.8	42	45.1	48.5	51.8	55.3	58.7	62
x2 = 0.6	32.5	35.4	38.4	41.5	44.7	48	51.3	54.7	58.2	61.5
x2 = 0.7	32.2	35.1	38.1	41.2	44.4	47.6	50.9	54.3	57.8	61
x2 = 0.8	32	35	37.9	41	44.1	47.2	50.5	53.9	57.3	60.6
x2 = 0.9	31.9	34.8	37.8	40.7	43.8	47	50.3	53.6	57	60.2
